Patent US9868730B2, “Kappa opioid receptor selective compounds, compositions, and uses thereof” (The Trustees of Columbia University in the City of New York, priority 2013, dated 2018)
Entries after “also recorded” stand apart in the source; their conditions may differ.

Legend:
DOP receptor [1] = molecular target: T1, DOP receptor (Homo sapiens, UniProt P41143); experiment: Competitive inhibition of 3H-diprenorphine binding; settings: 0.3 nM 3H-diprenorphine; means ± S.E.M. (n = 3)
Description: (§1) Two days after transfection with human KOP receptor and GαoB, HEK293T cells were lysed and membranes were prepared in HEPES buffer (NaCl 140 mM, KCl 5.4 mM, HEPES 25 mM, EDTA 1 mM, MgCl2 2 mM, BSA 0.006%, pH 7.4) using a Polytron homogenizer. Membranes were incubated with ^3H-diprenorphine (0.3 nM) (PerkinElmer, Waltham, Mass.) at room temperature for 1 hour in a final volume of 1 ml, in the absence or presence of various concentrations of each small-molecule selected from the virtual screening. Membranes were then harvested using a Brandel cell harvester through a Whatman FPD-24 934AH glass-fiber filter and washed three times with ice-cold wash Buffer (Tris-HCl 10 mM, NaCl 120 mM, pH 7.4). Non-specific binding was determined using 400 nM of NorBNI.
(§2) To assess the degree of selectivity of MCKK-4, MCKK-5, MCKK-13, MCKK-17R or MCKK-17S for the hKOP over the DOP and MOP receptors, competitive inhibition of ^3H-diprenorphine (0.3 nM) binding in the absence or presence of various concentrations of each molecule were performed, and their Ki values for each receptor were determined (Table 2 below).

MOP receptor [2] = molecular target: T2, MOP receptor (Homo sapiens, UniProt P35372); experiment: Competitive inhibition of 3H-diprenorphine binding; settings: 0.3 nM 3H-diprenorphine; means ± S.E.M. (n = 3)
Description: as §1, §2

KOP receptor [3] = molecular target: T3, KOP receptor (Homo sapiens, UniProt P41145); experiment: BRET-based G protein (GαoB) activation assay in HEK293T cells; type: cell-based; design: host or cells: HEK293T; settings: for agonistic activity at hKOP (G protein activation), in words: relative to EKC; for EC50: hKOP co-expressed with GαoB-RLuc8, β1, mVenus-γ2, read-out: potency (EC50) of GαoB activation at hKOP
Excerpt: (§3) The cDNAs for human KOP (hKOP) receptor and the G protein GαoB were obtained from the Missouri S&T cDNA Resource Center. For arrestin recruitment experiments, full-length Renilla luciferase 8 (RLuc8, provided by S. Gambhir) was fused in-frame to the C terminus of the hKOP receptor in the pcDNA3.1 vector. The following human G protein constructs were provided by C. Gales (Gales et al., 2006; Sauliere et al., 2012): GαoB with RLuc8 inserted at position 91 (GαoB-RLuc8); untagged Gβ1 (β1); untagged Gγ2 (γ2). The human γ2 subunit was fused to full-length mVenus at its N terminus (mVenus-γ2), and the fusion construct human arrestin3-mVenus was used as previously described (Klewe et al., 2008). All constructs were confirmed by sequencing analysis. A total of 20 μg of plasmid cDNA (e.g. 0.2 μg of hKOR-RLuc8, 15 μg of arrestin3-mVenus, and 4.8 μg of pcDNA3.1) was transfected into HEK-293T cells using polyethylenimine (Polysciences Inc., Warrington, Pa.) in a 1:3 ratio in 10-cm dishes. Cells were maintained in culture with DMEM supplemented with 10% FBS. The transfected ratio among receptor, Gα, β1, and γ2, or arrestin was optimized by testing various ratios of plasmids encoding the different sensors. Experiments were performed 48 hours after transfection.
(§4) BRET was performed as described (Guo et al., 2008). Briefly, two days after transfection, cells were harvested, washed, and re-suspended in a phosphate-buffered saline (PBS) solution. Approximately 200,000 cells/well were distributed in 96-well plates, and 5 μM coelenterazine H (luciferase substrate) was added to each well. Five minutes after the addition of coelenterazine H, ligands were added to each well, and after 2 minutes for G protein activation or 5 minutes for arrestin recruitment, the BRET signal was determined by quantifying and calculating the ratio of the light emitted by mVenus, the energy acceptor (510-540 nm), over that emitted by RLuc8, the energy donor (485 nm). The drug-induced BRET signal was normalized, taking the Emax of the ethylketocyclazocine (EKC)-induced response as 100%. To measure cAMP accumulation, a BRET-based cAMP in a previously described YFP-Epac-RLuc (CAMYEL) assay was used (Jiang et al., 2007). GαoB B, β1, and γ2 were co-expressed to enhance the signal-to-noise ratio, and the cells were treated for 5 minutes with 100 μM forskolin prior to stimulation (Jiang et al., 2007). The data were normalized and represented as the percentage of forskolin-stimulated cAMP accumulation with 0 defined as the maximal inhibition elicited by EKC.
To assess whether any of these molecules had agonistic activity, a BRET-based G protein activation assay where the hKOP receptor was co-expressed in HEK293T cells with GαoB-RLuc8, β1, and mVenus-γ2 was used. The drug-induced BRET signal is interpreted as a dissociation of and/or conformational change within the Gαβγ complex, and thus, as the activation of the co-expressed G protein.

KOP receptor [4] = molecular target: T3, KOP receptor; experiment: Competitive inhibition of 3H-diprenorphine binding, membranes of transfected HEK293T cells; design: host or cells: HEK293T; settings: for Ki / inhibition of 3H-diprenorphine binding: 0.3 nM 3H-diprenorphine; for Ki: means ± S.E.M. (n = 3), read-out: Ki KOP; for inhibition of 3H-diprenorphine binding: 100 μM compound, room temperature, 1 hour
Description: as §1
The primary experimental testing of MCKK-1-22 consisted of performing a competitive inhibition binding assay at the hKOP receptor. Membranes of HEK293T cells transfected with the hKOP receptor and GαoB were prepared and incubated with ^3H-diprenorphine (0.3 nM) in the absence or presence of 10 or 100 μM of each small-molecule from the virtual screening.
as §2

KOP receptor [5] = molecular target: T3, KOP receptor; experiment: G protein bias from BRET-based G protein activation and arrestin recruitment assays; type: cell-based
DOP receptor [6] = molecular target: T1, DOP receptor; experiment: BRET-based G protein activation assay; type: cell-based; design: expressed in transfected cells; settings: for EC50: read-out: potency of G protein activation at DOP
Description: as §4

MOP receptor [7] = molecular target: T2, MOP receptor; experiment: BRET-based G protein activation assay; type: cell-based; design: expressed in transfected cells
Description: as §4

KOP receptor [8] = molecular target: T3, KOP receptor; experiment: BRET-based arrestin3 recruitment assay; type: cell-based; design: host or cells: HEK293T; settings: hKOP-RLuc8 with arrestin3-mVenus; read-out: potency of arrestin3 recruitment at hKOP
Excerpt: as §3
BRET was performed as described (Guo et al., 2008). Briefly, two days after transfection, cells were harvested, washed, and re-suspended in a phosphate-buffered saline (PBS) solution. Approximately 200,000 cells/well were distributed in 96-well plates, and 5 μM coelenterazine H (luciferase substrate) was added to each well. Five minutes after the addition of coelenterazine H, ligands were added to each well, and after 2 minutes for G protein activation or 5 minutes for arrestin recruitment, the BRET signal was determined by quantifying and calculating the ratio of the light emitted by mVenus, the energy acceptor (510-540 nm), over that emitted by RLuc8, the energy donor (485 nm). The drug-induced BRET signal was normalized, taking the Emax of the ethylketocyclazocine (EKC)-induced response as 100%. […]

Row | Compound | Ki (DOP receptor [1]) [µM] | Ki (MOP receptor [2]) [µM] | agonistic activity at hKOP (G protein activation), in words (KOP receptor [3]) | Ki (KOP receptor [4]) [µM] | inhibition of 3H-diprenorphine binding (KOP receptor [4]) | bias toward G protein activation over arrestin (KOP receptor [5]) | other results
1 | O=S1(=O)CCC(NCc2cccc(OCCn3ccnc3)c2)C1 (centres unmarked) [MCKK-13] | 300 ± 99 | > 10000 | None of the other molecules, MCKK-4, MCKK-5 and MCKK-13, significantly activated GoB | 453 ± 27 | partially but significantly inhibited |  | 
2 | CN(CC(=O)NC1CCN(Cc2ccccc2)C1)Cc1ccco1 (centres unmarked) [MCKK-5] | 179 ± 187 | 428 ± 137 | None of the other molecules, MCKK-4, MCKK-5 and MCKK-13, significantly activated GoB | 134 ± 81 | partially but significantly inhibited |  | 
3 | O=C(Nc1cccc(-n2cccn2)c1)C1CCCN1Cc1c[nH]cn1 (centres unmarked) [MCKK-4] | 641 ± 192 | 906 ± 836 | None of the other molecules, MCKK-4, MCKK-5 and MCKK-13, significantly activated GoB | 292 ± 209 | partially but significantly inhibited |  | 
4 | Oc1ccc2c(c1)[C@@]13CCCC[C@@]1(O)[C@@H](C2)N(CC1CCC1)CC3 [butorphanol] |  |  |  |  |  | showed bias toward G protein activation over arrestin | 
5 | O=C(CN1CCC[C@H]1C(=O)Nc1nccs1)Nc1cccc(F)c1 [MCKK-17S, (S)-1-(2-(3-fluorophenylamino)-2-oxoethyl)-N-(thiazol-2-yl)pyrrolidine-2-carboxamide] | > 10000 | > 10000 | full agonism relative to EKC; also recorded: more active stereoisomer | 123 ± 38 |  | not biased toward G protein activation over arrestin | selectivity for hKOP relative to MOP and DOP receptors (G protein activation) (KOP receptor [3]): selective for hKOP relative to MOP and DOP receptors; EC50 (KOP receptor [3]): 7.2 ± 3.8 µM; agonistic activity at DOP (G protein activation), in words (DOP receptor [6]): did not significantly activate the DOP receptor; EC50 (DOP receptor [6]): > 1000 µM; agonistic activity at MOP (G protein activation), in words (MOP receptor [7]): Neither the racemic nor the MCKK-17 stereoisomers displayed significant activity; selectivity for hKOP over DOP and MOP receptors (binding affinity) (KOP receptor [4]): exhibited selectivity for the hKOP receptor; EC50 (KOP receptor [8]): 123 ± 47 µM
6 | O=C(N[C@@H]1CC[C@@]2(O)C3Cc4ccc(O)c5c4[C@@]2(CCN3CC2CC2)[C@H]1O5)c1ccc2ccccc2c1 [NNTA] |  |  |  |  |  | non-biased | 
7 | C[C@H]1[C@H]2Cc3ccc(O)cc3[C@]1(C)CCN2CC1CC1 [cyclazocine] |  |  |  |  |  | showed bias toward G protein activation over arrestin; also recorded: biased toward G protein activation | 
8 | O=C(CN1CCCC1C(=O)Nc1nccs1)Nc1cccc(F)c1 (racemic) [MCKK-17, 1-(2-(3-fluorophenylamino)-2-oxoethyl)-N-(thiazol-2-yl)pyrrolidine-2-carboxamide] |  |  | exhibited agonistic activity |  | partially but significantly inhibited |  | EC50 (KOP receptor [3]): 8.3 ± 4 µM; EC50 (DOP receptor [6]): > 1000 µM; agonistic activity at MOP (G protein activation), in words (MOP receptor [7]): Neither the racemic nor the MCKK-17 stereoisomers displayed significant activity; inhibition of 3H-diprenorphine binding (KOP receptor [4]; listed as MCKK-17(R/S)): significantly inhibited; EC50 (KOP receptor [8]): 164 ± 38 µM
9 | CN1CC[C@]23CCCC[C@H]2[C@H]1Cc1ccc(O)cc13 [levorphanol] |  |  |  |  |  | showed bias toward G protein activation over arrestin | 
10 | CC[C@]12CCN(CC3CC3)[C@H](C(=O)c3ccc(O)cc31)[C@@H]2C [EKC, ethylketocyclazocine] |  |  |  |  |  | non-biased | 
11 | O=C(CN1CCC[C@@H]1C(=O)Nc1nccs1)Nc1cccc(F)c1 [MCKK-17R, (R)-1-(2-(3-fluorophenylamino)-2-oxoethyl)-N-(thiazol-2-yl)pyrrolidine-2-carboxamide] | 286 | 508 |  | 2900 |  |  | EC50 (KOP receptor [3]): 115 ± 9 µM; agonistic activity at DOP (G protein activation), in words (DOP receptor [6]): most active enantiomer at the DOP receptor; EC50 (DOP receptor [6]): > 1000 µM; agonistic activity at MOP (G protein activation), in words (MOP receptor [7]): Neither the racemic nor the MCKK-17 stereoisomers displayed significant activity; EC50 (KOP receptor [8]): > 1000 µM
